Tests used:
Rhizoctonia solani = Rhizoctonia solani test (in vitro)/microtitre plates; format: cell-based; details: 120 h, application rate 0.1 ppm, 5 days incubation, PDB medium, read-out: % efficacy
Protocol: Rhizoctonia solani Test (In Vitro)/Microtitre Plates The microtest is carried out in microtitre plates using Potato Dextrose Broth (PDB) as liquid test medium. The active compounds are used as technical-grade a.i., dissolved in methanol. For inoculation, a mycelium suspension of Rhizoctonia solani is used. After 5 days of incubation in the dark and with shaking (10 Hz), the transparency of each filled cavity of the microtitre plates is determined with the aid of a spectrophotometer. Here, 0% means an efficacy which corresponds to the growth in the controls, whereas an efficacy of 100% means that no fungal growth is observed.

Leptosphaeria nodorum = Leptosphaeria nodorum test (wheat)/protective; format: in vivo, Leptosphaeria nodorum on wheat; details: evaluation 10 days after inoculation
Protocol: Leptosphaeria nodorum Test (Wheat)/Protective • Solvent: 50 parts by weight of N,N-dimethylacetamide • Emulsifier: 1 part by weight of alkylaryl polyglycol ether To produce a suitable preparation of active compound, 1 part by weight of active compound is mixed with the stated amounts of solvent and emulsifier, and the concentrate is diluted with water to the desired concentration. To test for protective activity, young plants are sprayed with the active compound preparation at the stated application rate. After the spray coating has dried on, the plants are sprayed with a spore suspension of Leptosphaeria nodorum. The plants remain in an incubation cabin at 20° C. and 100% relative atmospheric humidity for 48 hours. The plants are placed in a greenhouse at a temperature of about 20° C. and a relative atmospheric humidity of 80%. Evaluation is carried out 10 days after the inoculation. Here, 0% means an efficacy which corresponds to that of the control, whereas an efficacy of 100% means that no infection is observed.

Pyrenophora teres = Pyrenophora teres test (barley)/protective; format: in vivo, Pyrenophora teres on barley; details: 62.5 g/ha; evaluation 10 days after inoculation
Protocol: Pyrenophora teres Test (Barley)/Protective • Solvent: 50 parts by weight of N,N-dimethylacetamide • Emulsifier: 1 part by weight of alkylaryl polyglycol ether To produce a suitable preparation of active compound, 1 part by weight of active compound or active compound combination is mixed with the stated amounts of solvent and emulsifier, and the concentrate is diluted with water to the desired concentration, or a commercial formulation of active compound or active compound combination is diluted with water to the desired concentration. To test for protective activity, young plants are sprayed with the active compound preparation at the stated application rate. After the spray coating has dried on, the plants are sprayed with a conidia suspension of Pyrenophora teres. The plants remain in an incubation cabin at 20° C. and 100% relative atmospheric humidity for 48 hours. The plants are then placed in a greenhouse at a temperature of about 20° C. and a relative atmospheric humidity of about 80%. Evaluation is carried out 10 days after the inoculation. Here, 0% means an efficacy which corresponds to that of the control, whereas an efficacy of 100% means that no infection is observed.

Structure (SMILES)	Emax at 0.1 ppm (Rhizoctonia solani) [%]	Efficacy in % found (Leptosphaeria nodorum; 62.5 g/ha) [%]	Efficacy in % found (Pyrenophora teres) [%]	Efficacy in % found (Leptosphaeria nodorum; 125 g/ha) [%]
CC(C)(C)C(O)(CCc1ccc(Cl)cc1)Cn1cncn1 (racemic) [Tebuconazole, (RS)-1-p-chlorophenyl-4,4-dimethyl-3-(1H-1,2,4-triazol-1-ylmethyl)-pentan-3-ol]	13	56		
Cc1nn(C)c(F)c1C(=O)Nc1ccccc1C(C)CC(C)C (stereo not shown) [(I), N-[2-(1,3-Dimethylbutyl)phenyl]-5-fluoro-1,3-dimethyl-1H-pyrazole-4-carboxamide]		0	67	
OC(Cc1ccccc1Cl)(Cn1nc[nH]c1=S)C1(Cl)CC1 (stereo not shown) [(II) Prothioconazole, prothioconazole]			44	
COCC(=O)N(c1c(C)cccc1C)C(C)C(=O)OC (stereo not shown) [(III) Metalaxyl, metalaxyl]			0	11
